# In US10889553B2, “Asymmetric triazole benzamide derivatives and the compositions and methods of treatment regarding the same” (NysnoBio Ireland DAC, priority 2017, dated 2021):
# “And” between values parts separate entries of the source, which are not always exact repeats. Identical values can stand only once.
# Molecular target: T1, Parkin ligase (Homo sapiens, UniProt O60260)
# T1 sequence (O60260 1-465): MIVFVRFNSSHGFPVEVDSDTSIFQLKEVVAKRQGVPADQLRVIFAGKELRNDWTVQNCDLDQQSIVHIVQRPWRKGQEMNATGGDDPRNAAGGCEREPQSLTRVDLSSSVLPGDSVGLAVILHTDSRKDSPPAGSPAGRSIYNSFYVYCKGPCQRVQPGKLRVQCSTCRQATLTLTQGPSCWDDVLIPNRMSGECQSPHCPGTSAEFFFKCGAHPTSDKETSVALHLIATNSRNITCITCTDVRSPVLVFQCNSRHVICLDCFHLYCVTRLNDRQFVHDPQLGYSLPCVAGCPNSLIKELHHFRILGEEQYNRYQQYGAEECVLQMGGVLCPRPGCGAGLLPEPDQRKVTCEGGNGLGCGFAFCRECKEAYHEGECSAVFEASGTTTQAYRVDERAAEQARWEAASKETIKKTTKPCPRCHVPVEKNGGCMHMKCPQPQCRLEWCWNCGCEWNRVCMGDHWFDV
# Test: Activity-Based Probe Assay using Ubiquitin vinyl sulfone probe (TR-FRET)
# Format: biochemical
# Details: heat activated Parkin, HA-Ub-VS probe, activation EC50; read-out: Probe Assay EC50 (μM) [Example 2]
# Experimental: An Ubiquitin vinyl sulfone probe can be used that irreversibly binds to the active site cysteine of Parkin ligase. Covalent attachment of the probe to the Parkin can be monitored by TR-FRET. Candidate activator compounds can be identified by increasing the activity of Parkin ligase due to an increase in TR-FRET signal. Screening for activating compounds can be distinguished from the controls as follows: 100% activation signal=Heat activated Parkin+100 nM control activator in DMSO. 0% activation signal=Heat activated Parkin+DMSO only. Parkin activators can be identified by an increase of the 0% activation signal TR-FRET signal. Assay Conditions: Materials: • Assay Plate: White 384 well plate (Corning 3572) • Enzyme: Parkin-His tagged 203 μM (10.5 mg/ml) • Probe: Ubiquitin vinyl-sulfone (HA-Ub-VS Boston Biochem U-212) • DMSO: DMSO (Sigma cat #D4540-100ML) • Reaction Buffer: 50 mM HEPES (pH 8.5), 150 mM NaCl, 0.01% Tween 20, 0.1% BSA • Detection Buffer: 50 mM HEPES (pH 8.5), 150 mM NaCl, 0.01% Tween 20, 0.1% BSA, 800 mM KF • Detection Reagent A: 2.6 nM Anti-6HIS-Eu cryptate and 40 nM Anti-HA-XL665 in detection buffer • Eu cryptate: Anti-6HIS-Eu cryptate (CisBio 61HISKLA) • XL665: Anti-HA-XL665 (CisBio 610HAXLA) Enzyme Reaction (15 Min Pre Incubation Parkin with Activator Only) • Parkin: 40 nM • HA-Ub-VS Probe: 70 nM • Activator/DMSO: 2× Activator/2% DMSO Reaction time: 60 minutes Temperature: 22° C. Total volume: 10 μl reaction Detection Reaction Take […] of Enzyme Reaction above and add 10 μl detection Reagent A under the following conditions: • Reaction time: 60 minutes • Temperature: 22° C. • Total volume: 20 μl
# Assay procedure (Using HP D-300 compound dispenser and Bravo for the operation):
# 1) Heat activate Parkin in reaction buffer (500 μl/1.5 ml tube: Eppendorf Thermomixer 5 minutes, 400 rpm at 58° C. and put on ice until needed).
# 2) Load assay plate wells with 4.8 μl 84.5 nM Parkin in reaction buffer by use of Bravo.
# 3) Deliver 0.2 μl 200× activator candidates in DMSO by use of HP D-300 compound dispenser. Highest 200× concentration=[…] and then twofold dilutions.
# 4) Spin 1000 rpm, 2 minutes, at room temp.
# 5) Incubate plate for 15 minutes at room temp.
# 6) Add 5 μl 140 nM HA-Ub-VS Probe in reaction buffer by use of Bravo.
# 7) Spin 1000 rpm, 2 minutes, at room temp.
# 8) Incubate plate for 60 minutes at room temp.
# 9) Add 10 μl 2.6 nM Anti-6HIS-Eu cryptate and 40 nM […] in detection buffer.
# 10) Spin 1000 rpm, 2 minutes, at room temp.
# 11) Incubate plate for 60 minutes at room temp.
# 12) Read plates on Perkin Elmer Envision instrument with the following parameters:
# LANCE dual laser protocol loaded into the Envision® software
# Top Mirror: LANCE/DELFIA Duel/Bias (Bar code 446)
# Emission Filter: APC 665 EM (Bar code 205)
# 2nd Emission Filter: Europium 615 EM (Bar code 203)
# Read 655 nm (channel 1) and 615 nm (channel 2) wavelengths on Envision®
# Data Analysis: The Data can be read in CSV files. There are two tables in those CSV files, which are the values of 655 nm (channel 1) and 615 nm (channel 2) wavelengths respectively. The data is converted to an HTRF Ratio=(Channel 1/Channel 2)*10,000
# The average of all the 0 μM controls (DMSO only)=BKGD (Background—0% activation). Subtract BKGD from each HTRF Ratio value=HTRF−BKGD. The average of all the […] 100 nM control activator in DMSO controls=Max (100% activation). The following equation is then used to calculate % Activation for each well/candidate as follows: % Activation=(HTRF−BKGD/Max)*100.
# Graphpad Prism was used with Transform X values: X=Log(X) and nonlinear regression (dose-response-stimulation): Log(agonist) vs Response−variable slope (four parameters) with constrains set to Bottom=0 and Top=100.
# The Activity-Based Probe Assay was performed with various compounds in Tables 1, 2, 3A and 3B.
row,EC50,SMILES
1,52 µM and > 100 µM,Cc1ccccc1C(=O)Nc1nc(NC(=O)c2ccccc2C)n(-c2ccc3c(c2)CCO3)n1 [Compound 1]
2,38 µM and 24 µM,Cc1ccccc1C(=O)Nc1nc(NC(=O)[C@@H]2C[C@@H](F)CN2)nn1-c1ccccc1 [Compound 4]
3,> 100 µM,Cc1ccccc1C(=O)Nc1nc(NC(=O)C2CCCNC2)n(-c2ccccc2)n1 (stereo not drawn) [Compound 14]
4,> 100 µM,Cc1ccccc1C(=O)Nc1nc(NC(=O)C2CCCN2)n(-c2ccccc2)n1 (stereo not drawn) [Compound 15]
5,> 100 µM,Cc1ccccc1C(=O)Nc1nc(NC(=O)C2CCCNC2)nn1-c1ccccc1 (stereo not drawn) [Compound 19]
6,> 100 µM,Cc1ccccc1C(=O)Nc1nc(NC(=O)c2cn(C)cn2)n(-c2ccccc2)n1 [Compound 22]
7,> 100 µM,Cc1ccccc1C(=O)Nc1nc(NC(=O)C2CNC2)nn1-c1ccccc1 [Compound 43]
8,> 100 µM,Cc1ccccc1C(=O)Nc1nc(NC(=O)C2CCN(CCC#N)CC2)nn1-c1ccccc1 [Compound 45]
9,16 µM,Cc1ccccc1C(=O)Nc1nc(NC(=O)c2ccccc2C)n(-c2cnn(C)c2)n1 [Compound 47]
10,2 µM,C#Cc1ccc(C(=O)Nc2nc(NC(=O)c3cccc(N=[N+]=[N-])c3)nn2-c2ccccc2)cc1 [Compound 48]
11,> 100 µM,O=C(Nc1nc(NC(=O)C2CCCCN2)n(-c2ccccc2)n1)C1CCCCN1 (stereo not drawn) [Compound 49]
12,> 100 µM,Cc1ccccc1C(=O)Nc1nc(-c2ccc(F)cn2)nn1-c1ccccc1 [Compound 50]
13,84 µM,Cc1ccccc1C(=O)Nc1nc(NC(=O)C2CCCCN2)nn1-c1ccccc1 (stereo not drawn) [Compound 51]
14,61 µM,O=C(Nc1nc(Nc2cccc3ccccc23)n(-c2ccccc2)n1)c1ccccc1 [Compound 52]
15,> 100 µM,C#Cc1ccc(C(=O)Nc2nc(NC(=O)c3ccc(N=[N+]=[N-])cc3)nn2-c2ccccc2)cc1 [Compound 53]
16,10 µM,Cc1ccccc1C(=O)Nc1nc(NC(=O)c2ccccc2C)n(-c2ccc(N3CCOCC3)cc2)n1 [Compound 54]
17,12 µM,O=C(Nc1nc(NC(=O)c2c(F)c(F)c(F)c(F)c2F)n(-c2ccccc2)n1)c1ccccc1 [Compound 55]
18,> 100 µM,O=C(Nc1nc(NC(=O)C2CCCNC2)n(-c2ccccc2)n1)C1CCCNC1 (stereo not drawn) [Compound 56]
19,> 100 µM,Cc1ccccc1C(=O)Nc1nc(NC(=O)c2ccccc2C)n(-c2ccc(N3CCNCC3)cc2)n1 [Compound 57]
20,8 µM,Cc1ccccc1C(=O)Nc1nc(NC(=O)c2cccc(N=[N+]=[N-])c2)nn1-c1ccccc1 [Compound 66]
21,24 µM,Cc1ccccc1C(=O)Nc1nc(NC(=O)c2ccccc2C)n(-c2ccc(N3CCN(C)CC3)cc2)n1 [Compound 68]
22,4 µM,Cc1ccccc1C(=O)Nc1nc(NC(=O)c2cccc(N=[N+]=[N-])c2)n(-c2ccccc2)n1 [Compound 69]
23,4 µM,Cc1ccccc1C(=O)Nc1nc(NC(=O)c2ccc(N=[N+]=[N-])cc2)n(-c2ccccc2)n1 [Compound 70]
24,2 µM,O=C(Nc1nc(NC(=O)c2cccnc2)n(-c2cccc(F)c2)n1)c1cccnc1 [Compound 72]
25,0.9 µM,Cc1ccccc1C(=O)Nc1nc(NC(=O)c2ccc(N=[N+]=N)cc2)n(-c2ccc(OC(F)(F)F)cc2)n1 [Compound 74]
26,34 µM,Cc1ccccc1C(=O)Nc1nc(NC(=O)c2ccc(N=[N+]=[N-])cc2)nn1-c1ccc(OC(F)(F)F)cc1 [Compound 76]

row,EC50,SMILES
1,6 µM,Cc1ccccc1C(=O)Nc1nc(NC(=O)c2cccc(N=[N+]=[N-])c2)nn1-c1ccc(OC(F)(F)F)cc1 [Compound 77]
2,0.2 µM and 0.4 µM and 0.5 µM,O=C(Nc1nc(NC(=O)c2c(F)c(F)c(F)c(F)c2F)nn1-c1ccccc1)c1ccccc1 [Compound 78]
3,1 µM,Cc1ccccc1C(=O)Nc1nc(NC(=O)c2cccc(N=[N+]=[N-])c2)n(-c2ccc(OC(F)(F)F)cc2)n1 [Compound 79]
4,3 µM,Cc1ccccc1C(=O)Nc1nc(NC(=O)c2ccncc2)nn1-c1ccc(OC(F)(F)F)cc1 [Compound 80]
5,3 µM,O=C(Nc1nc(NC(=O)c2cccnc2)n(-c2ccc(Cl)cc2)n1)c1cccnc1 [Compound 81]
6,2 µM,O=C(Nc1nc(NC(=O)c2ccncc2)n(-c2ccc(Cl)cc2)n1)c1ccncc1 [Compound 82]
7,> 100 µM,O=S(=O)(Nc1nc(NS(=O)(=O)c2ccccc2)n(-c2ccccc2)n1)c1ccccc1 [Compound 83]
8,4 µM,Cc1ccccc1C(=O)Nc1nc(NCc2ccccc2)nn1-c1ccccc1 [Compound 84]
9,3 µM,Cc1ccccc1C(=O)Nc1nc(NC(=O)c2ccncc2)nn1-c1ccc(C(F)(F)F)cc1 [Compound 85]
10,6 µM,Cc1ccccc1C(=O)Nc1nc(NC(=O)c2cccnc2)nn1-c1ccc(OC(F)(F)F)cc1 [Compound 86]
11,7 µM,Cc1ccccc1C(=O)Nc1nc(NC(=O)c2cccnc2)nn1-c1cccc(F)c1 [Compound 87]
12,5 µM,CCc1ccccc1C(=O)Nc1nc(NC(=O)c2ccccc2CC)n(-c2ccccc2)n1 [Compound 88]
13,2 µM,Cc1ccccc1C(=O)Nc1nc(NC(=O)c2ccncc2)nn1-c1cccc(F)c1 [Compound 89]
14,> 100 µM,O=C(Nc1ccccc1)c1nc(C(=O)Nc2ccccc2)n(-c2ccccc2)n1 [Compound 90]
15,2 µM,Cc1ccccc1C(=O)Nc1nc(NCCc2ccccc2)nn1-c1ccccc1 [Compound 91]
16,2 µM,Cc1ccccc1C(=O)Nc1nc(NC(=O)c2ccncc2)nn1-c1ccc(Cl)cc1 [Compound 92]
17,> 100 µM,Cc1cncc(F)c1C(=O)Nc1nc(NC(=O)c2c(C)cncc2F)n(-c2ccccc2)n1 [Compound 93]
18,4 µM,Cc1ccccc1C(=O)Nc1nc(NC(=O)c2cccnc2)nn1-c1ccc(C(F)(F)F)cc1 [Compound 94]
19,4 µM,Cc1ccccc1C(=O)Nc1nc(NC(=O)c2cccnc2)nn1-c1ccc(Cl)cc1 [Compound 95]
20,11 µM and 8 µM,O=C(Nc1nc(NC(=O)c2ccnc(O)c2)n(-c2ccccc2)n1)c1ccnc(O)c1 [Compound 96]
21,14 µM,Cc1ccccc1C(=O)Nc1nc(NCCc2ccccn2)nn1-c1ccccc1 [Compound 97]
22,5 µM,Cc1c(C(=O)Nc2nc(NC(=O)c3ccnc(F)c3C)n(-c3ccccc3)n2)ccnc1F [Compound 98]
23,13 µM,Cc1cnccc1C(=O)Nc1nc(NC(=O)c2ccncc2C)n(-c2ccccc2)n1 [Compound 99]
24,9 µM,Cc1cccc(C)c1C(=O)Nc1nc(NC(=O)c2c(C)cccc2C)n(-c2ccccc2)n1 [Compound 100]
25,18 µM,Cc1ccccc1C(=O)Nc1nc(NCc2ccccn2)nn1-c1ccccc1 [Compound 101]
